Results: patent US20030170642A1, “Identification of cellular targets for biologically active molecules” (IRM, LLC, priority 2001, published 2003)
Like-named read-outs stand apart in the source and are kept apart here.

Legend:
NF-κB [1] = assay: In cellulo competition: over-expression of TNF/NF-κB pathway cDNAs in HEK293 NF-κB reporter cells; conditions: for Effect of over-expressed IKK-beta or NF-κB p65 on the compound's inhibition of the NF-κB reporter: transient over-expression, 1, 2 or 5 mM
Protocol: (§2) HEK293T NF-κB reporter cells were seeded at 7000 cells/well in 384-well plates in triplicate. Eighteen hours later, cells were treated with TNF-alpha (10 ng/mL) in the absence of or presence of 1, 2 or 5 mM sodium salicylate. Cells in other wells were transfected with mammalian expression vectors encoding wild-type human IKK-beta (50 ng) or NF-κB p65 (10 ng) by calcium phosphate. Eight hours post transfection, fresh medium was added with 1, 2 or 5 mM sodium salicylate and incubated for an additional 16 hours. At 24 hours post TNF addition or post transfection, cells were lysed and incubated with Bright-Glo (Promega) and Relative Light Units (RLUs) were determined using the LJL Acquest luminometer.
Screening and Small Complementation: HEK293 NF-κB reporter cells were plated at 7000 cells/well in 384-well Greiner clear bottom plates using a Titertek Multidrop. Cells were incubated for 8 hours before transfection of the cDNA libraries. […] Thirty minutes compound treatment, The Hydra was used again to mix two μL DNA with 8 ul of a premixed solution 61 μl 2m CaC12, 440 μH20 distributed into a 384-well intermediate plate. Then, 10 ul of a 2× Hepes Buffered Saline solution (HBS, pH 7.0) was mixed with the DNA and pipetted automatically for 5 seconds followed by 10 μL addition of the transfection solution to HEK293 NF-κB reporter cells. After transfected plates of cells were incubated at 37° C. for 16 hours, Bright-Glo was added to each well using a twelve-head multi-channel pipettor, incubated for five minutes then read on the LJL Acquest in luminescence mode. Controls used in this experiment were limited to p65, IKK-beta, NIK and IKK-alpha. Additionally, retroviral vectors encoding firefly luciferase alone were plated in 384-wells and transfected into wild-type HEK293 cells to determine transfection efficiency and CVs.
(§3) HEK293 NF-κB reporter cells were plated in 96-well plates at 28,000 cells/well in D'MEM media containing 10% FBS, pen-strep antibiotics and 1 mM glutamine. […] After 24 hours, samples were treated with Bright-Glo and analyzed using the LJL Acquest luminometer.

NF-κB [2] = assay: HEK293 NF-κB-luciferase reporter gene assay, TNF-alpha stimulation
Protocol: Day 7: HEK293 and Jurkat NF-κB reporter cells were plated and treated with a dose-response of human TNF-alpha for 2 to 24 hours, lysed and treated with Bright-Glo luciferase reagent (Promega) and luminescence measured with the LJL Acquest luminometer.
as §2
Stimulus and detection addition: After 30 minute incubation with compounds, a solution of TNF-alpha (Sigma) diluted to 60 ng/ml and transferred to cells using the Cartesian synQUAD such that 1 μL of stimulus was added per well to a final dilution of approximately 10 ng/ml final. […] Cells were incubated with the Alamar Blue for three hours then read on the LJL Acquest in fluorescence mode at 100,000 us/well. […] Precisely five minutes after addition of Bright-Glo, the cell plate was read in luminescence mode in the LJL Acquest at 100,000 us per well. Wells treated with compounds in which fluorescent signals were >90% of the mean across the plate, and below 50% of the mean across the plate for luminescence were identified and compounds hit picked for future studies. […] IC50 values were also determined in the HEK293 NF-κB reporter gene assay in the same manner.
as §3

NF-κB [3] = assay: Jurkat NF-κB-luciferase reporter cell assay, TNF-alpha stimulation; format: cell-based; conditions: Jurkat reporter cells
Protocol: (§1) Alternatively, Jurkat NF-κB reporter cells were seeded at 30,000 cells per/ml in 384-well microtiter plates. Recombinant retroviruses encoding wild-type IKK-beta or NF-κB p65 were generated and used to transduce Jurkat reporter cells. Untransduced cells were treated with 1, 2 or 5 mM salicylate for 30 minutes prior to stimulation with TNF-alpha (10 ng/ml).
Cell Plating: Jurkat NF-κB reporter cells were seeded at 5 μL per well in Greiner 1536-well micro-plates using the Cartesian synQUAD. Settings for the 24,000 step motor were such that a 100 μL syringe would provide a volume per step of 4.2 nL; timing was controlled by a master dispenser solenoids and stepper motors which moved the stage and controlled the syringe pumps. The result was extremely rapid “on-the-fly” dispensing, similar to an inkjet printer. […]
Compound addition: Four Falcon 384-well plates containing compounds (Aldrich) dissolved in dimethylsulfoxide (DMSO) to a final concentration of 1 mM (excepting the last two columns which were just DMSO) were transferred to the Jurkat reporter cells. […] Coefficients of variation (CVs) before and after compound addition was determined by transferring liquid from a FITC solution bath to 384 well plates and read on the LJL Acquest in fluorescence modality.

NF-κB [4] = conditions: Jurkat reporter cells, stable retroviral over-expression, 1, 2 or 5 mM
Protocol: as §1, with “ng/ml). For transduced cells, 4 hours post retroviral incubation, cells were treated with either 0, 1, 2 or 5 mM salicylic acid.” for “ng/ml).”

Compound: CC(=O)c1c(O)c(C)c(O)c(Cc2c(O)c3c(c(C(=O)/C=C/c4ccccc4)c2O)OC(C)(C)C=C3)c1O [Rottlerin]
- Block of NF-κB reporter signals induced by TNF or over-expressed TNFR, TRAF2, NIK, IKK-beta, IKK-alpha, p65 (NF-κB [1]; compound at its IC50 concentration, 24 hours): able to block signals induced by TNF, TNFR, but not TRAF2
- IC50 (NF-κB [2]; Homo sapiens, HEK293, read-out: IC50 concentration, NF-κB reporter gene assay): 0.05 µM

Compound: O=C(O)c1ccccc1O [Salicylate, salicylic acid]
- Effect of over-expressed IKK-beta or NF-κB p65 on the compound's inhibition of the NF-κB reporter (NF-κB [1]): over-expression of cDNA encoding human IKK-beta diminished the inhibitory effects
- Effect of over-expressed IKK-beta or NF-κB p65 on the compound's inhibition of the NF-κB reporter (NF-κB [1]; listed as salicyclic acid): over-expression of IKK-beta, but not NF-κB p65, could titrate out the effect
- Block of TNF induction of NF-κB reporter (NF-κB [3]; TNF-alpha 10 ng/ml, 1, 2 or 5 mM salicylate): block TNF induction of NF-κB
- Block of TNF induction of NF-κB reporter (NF-κB [2]; HEK293 reporter cells, TNF-alpha 10 ng/mL, 1, 2 or 5 mM sodium salicylate): block TNF induction of NF-κB
- Effect of over-expressed IKK-beta or NF-κB p65 on the compound's inhibition of the NF-κB reporter (NF-κB [4]): over-expression of cDNA encoding human IKK-beta diminished the inhibitory effects
- Effect of over-expressed IKK-beta or NF-κB p65 on the compound's inhibition of the NF-κB reporter (NF-κB [4]; listed as salicyclic acid): over-expression of IKK-beta, but not NF-κB p65, could titrate out the effect

Compound: TNF-alpha
- Induction of NF-κB reporter luciferase (NF-κB [3]; dose-response, 2 to 24 hours): inducible
- Induction of NF-κB reporter luciferase (NF-κB [2]; HEK293 reporter cells, dose-response, 2 to 24 hours): inducible
